The text below walks through data of patent US20260028343A1, “Substituted Imidazopyrazine Compounds as Ligand Directed Degraders of IRAK3” (Celgene Corporation, priority 2022, published 2026).

In assay [1] the target is T1, IRAK3 (Homo sapiens, UniProt Q9Y616).
T1 construct: IRAK Endogenous HTRF Degradation Assay; endogenous in cells
T1 sequence (Q9Y616 1-596): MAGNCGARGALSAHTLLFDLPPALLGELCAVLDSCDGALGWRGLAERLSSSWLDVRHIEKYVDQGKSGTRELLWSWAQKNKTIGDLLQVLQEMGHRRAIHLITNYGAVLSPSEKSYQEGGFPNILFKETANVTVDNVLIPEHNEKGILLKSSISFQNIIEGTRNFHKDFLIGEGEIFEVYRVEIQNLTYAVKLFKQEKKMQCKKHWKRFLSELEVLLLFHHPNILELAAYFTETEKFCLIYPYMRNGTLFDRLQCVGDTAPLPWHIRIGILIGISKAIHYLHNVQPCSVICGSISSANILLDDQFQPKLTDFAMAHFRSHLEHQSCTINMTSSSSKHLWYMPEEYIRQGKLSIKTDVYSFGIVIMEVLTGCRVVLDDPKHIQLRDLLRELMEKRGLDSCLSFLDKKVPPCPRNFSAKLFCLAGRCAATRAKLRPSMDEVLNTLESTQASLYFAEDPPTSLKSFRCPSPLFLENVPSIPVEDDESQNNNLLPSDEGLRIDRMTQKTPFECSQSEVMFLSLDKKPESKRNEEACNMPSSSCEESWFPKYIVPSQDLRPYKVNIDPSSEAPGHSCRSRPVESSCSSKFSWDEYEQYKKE
Briefly: IRAK3 Biochemical Binding Assay (LanthaScreen Eu Kinase Binding). The following applies: TR-FRET tracer displacement, 1 hour at room temperature. The protocol: The LanthaScreen® Eu Kinase Binding assay was performed as described by the vendor (ThermoFisher Scientific Waltham, MA). Briefly, 100× solutions of compound were prepared in DMSO via serial dilution of the 10 mM stock solution in a 384-well reagent plate using 3-fold intervals to achieve final concentrations. 1 μL of the compound dilution series were added to the corresponding wells of a 384-well reagent plate containing 32.3 μL of 1× buffer (50 mM HEPES pH 7.4, […], 1 mM EGTA, 0.01% Brij-35). 5 μL of the buffer diluted compounds were transferred to the corresponding wells of a 384-well assay plate. 5 μL of 3× tracer was transferred to each well of the assay plate for a final tracer concentration of 10 nM. Finally, 5 μL of the 3× Eu-Anti-GST and IRAK3 mix was transferred to each well for a final concentration of 2 nM and 10 nM respectively. Reactions were allowed to incubate for 1 hour at room temperature. TR-FRET signal of the interaction (λex340/λem 665/λem 615) was read at room temperature with a delay time of 100 μs and an integration time of 200 μs using an Envision plate reader. Background corrected emission signal ratios at each compound concentration were used to calculate percentage of inhibition (% Inhibition). Plots of % Inhibition versus inhibitor concentrations were fit according to a dose-response equation (Eq. 1) to generate IC50 and Hill slope values using Dotmatics software (Dotmatics, Bishops Stortford, Hertfordshire, England).
(§1) Using these assays, IC50, Dmax, EC50, and DC50 values of the following compounds were determined. Dmax is defined as the maximum percent degradation achieved and DC50 is the concentration at which 50% degradation is achieved.

The target in assay [2] is T1, IRAK3. Briefly: IRAK Endogenous HTRF Degradation Assay. The assay is classed as cell-based. The following applies: endogenous IRAK3, overnight incubation; for Dmax: % Dmax=100−Ymin; for DC50: concentration at which 50% degradation is achieved. The protocol: Cells (˜50 k) were plated in Cisbio 96-well low volume white plates (Cisbio: cat #66PL96005). Compounds were dissolved in DMSO and a 3-fold serial dilution was performed using a TECAN D300E. Cells were incubated with the compound overnight. Total-IRAK3 HTRF kit from Cisbio was used for degradation analysis (Cisbio: 63ADK101PEH). Cryptate and D2 antibodies were diluted in Detection buffer as per manufacturers recommendation. Then 2 μL of each solution was added to 16 μL lysate. Buffer control (lysis buffer detection buffer), Cryptate control (lysis buffer+cryptate antibody+detection buffer), and Negative control (lysis buffer+cryptate antibody+D2 antibody) were made as per manufacturers recommendation. Post incubation with antibodies the HTRF signal was measured using a Perkin Elmer Envision reader and the HTRF signal was calculated using formula: (Emission at 665 nm/Emission at 615 nm)*10,000. All HTRF values were normalized to the average value of DMSO. The average value of the DMSO control wells were set to equal 100% of the relative IRAK3 protein levels. Normalized luminescence values were plotted on a graph as a function of compound concentration. Compound concentration was plotted on the x-axis and the corresponding normalized IRAK3 protein levels on the y-axis. The EC50 value (the half-maximum effective concentration) of a compound for the degradation of the IRAK3 was calculated using a four-parameter logistic model (sigmoidal dose−response model)(FIT=(A+{(B−A)/1+[(C/x)D]})) where C is the inflection point (EC50), D is the […], and A and B are the low and high limits of the fit, respectively). The Ymin was calculated by determining the lowest percentage of target protein remaining following compound treatment. Dmax was calculated from Ymin (% Dmax=100−Ymin).
as §1

As usually defined, the IC50 is the midpoint of a concentration-inhibition curve. Read a low IC50 as greater potency in that assay. By Dmax is commonly meant the greatest extent of degradation seen. A low value points to a partial loss of target. The DC50 is the concentration giving 50% degradation. Higher therefore signals a less potent degrader. Take `Cc1cccc(-c2cnc(Nc3ccc(N4CCN(C(=O)COc5ccc6c(c5)C(=O)N(C5CCC(=O)NC5=O)C6=O)CC4)cc3)c3nccn23)c1` (stereo not drawn) [Compound 4, 2-(2,6-Dioxopiperidin-3-yl)-5-(2-oxo-2-(4-(4-((5-(m-tolyl)imidazo[1,2-a]pyrazin-8-yl)amino)phenyl)piperazin-1-yl)ethoxy)isoindoline-1,3-dione]: on IRAK3 [1], the IC50 amounted to 128 nM. Also, on IRAK3 [2], the Dmax was 4% and the 50% degradation concentration (DC50) was > 10 µM.
On IRAK3 [1], `Cc1cccc(-c2cnc(Nc3ccc(N4CCN(C(=O)COc5cccc6c5C(=O)N(C5CCC(=O)NC5=O)C6=O)CC4)cc3)c3nccn23)c1` (stereo not drawn) [Compound 1, 2-(2,6-Dioxopiperidin-3-yl)-4-(2-oxo-2-(4-(4-((5-(m-tolyl)imidazo[1,2-a]pyrazin-8-yl)amino)phenyl)piperazin-1-yl)ethoxy)isoindoline-1,3-dione] returned an IC50 of 278 nM. Moreover, at IRAK3 [2], the maximal degradation (Dmax) is 7% and the half-maximal degradation concentration (DC50) is > 10 µM.
For `Cc1cccc(-c2cnc(Nc3cnn(C4CCN(C5CCC6(CC5)CCN(C(=O)c5ccc7c(c5)CN(C5CCC(=O)NC5=O)C7=O)CC6)CC4)c3)c3nccn23)c1` (stereo not drawn) [Compound 12, 3-(1-Oxo-5-(9-(4-(4-((5-(m-tolyl)imidazo[1,2-a]pyrazin-8-yl)amino)-1H-pyrazol-1-yl)piperidin-1-yl)-3-azaspiro[5.5]undecane-3-carbonyl)isoindolin-2-yl)piperidine-2,6-dione] the same measures were 2 nM, 81% and 0.01 µM.
`Cc1cccc(-c2cnc(Nc3cccc(N4CCN(CCNC(=O)COc5ccc6c(c5)C(=O)N(C5CCC(=O)NC5=O)C6=O)CC4)c3)c3nccn23)c1` (stereo not drawn) [Compound 11, 2-((2-(2,6-Dioxopiperidin-3-yl)-1,3-dioxoisoindolin-5-yl)oxy)-N-(2-(4-(3-((5-(m-tolyl)imidazo[1,2-a]pyrazin-8-yl)amino)phenyl)piperazin-1-yl)ethyl)acetamide] registered a concentration for half-maximal inhibition (IC50) at IRAK3 [1] of 5340 nM. On IRAK3 [2], the Dmax came to 21% and the half-maximal degradation concentration (DC50) was > 10 µM.
In the same order, the values of `Cc1cccc(-c2cnc(Nc3ccc(N4CCN(C(=O)CCCNC(=O)COc5ccc6c(c5)C(=O)N(C5CCC(=O)NC5=O)C6=O)CC4)cc3)c3nccn23)c1` (stereo not drawn) [Compound 5, 2-((2-(2,6-Dioxopiperidin-3-yl)-1,3-dioxoisoindolin-5-yl)oxy)-N-(4-oxo-4-(4-(4-((5-(m-tolyl)imidazo[1,2-a]pyrazin-8-yl)amino)phenyl)piperazin-1-yl)butyl)acetamide] are 71 nM, 18% and > 10 µM.
In the same order, the values of `Cc1cccc(-c2cnc(Nc3ccc(N4CCN(C(=O)CCOCCNC(=O)COc5cccc6c5C(=O)N(C5CCC(=O)NC5=O)C6=O)CC4)cc3)c3nccn23)c1` (stereo not drawn) [Compound 3, 2-((2-(2,6-Dioxopiperidin-3-yl)-1,3-dioxoisoindolin-4-yl)oxy)-N-(2-(3-oxo-3-(4-(4-((5-(m-tolyl)imidazo[1,2-a]pyrazin-8-yl)amino)phenyl)piperazin-1-yl)propoxy)ethyl)acetamide] are 84 nM, 3% and > 10 µM.
For `Cc1cccc(-c2cnc(Nc3ccc(N4CCN(CCNC(=O)COc5ccc6c(c5)C(=O)N(C5CCC(=O)NC5=O)C6=O)CC4)cc3)c3nccn23)c1` (stereo not drawn) [Compound 7, 2-((2-(2,6-Dioxopiperidin-3-yl)-1,3-dioxoisoindolin-5-yl)oxy)-N-(2-(4-(4-((5-(m-tolyl)imidazo[1,2-a]pyrazin-8-yl)amino)phenyl)piperazin-1-yl)ethyl)acetamide], the IC50 on IRAK3 [1] came to 33 nM. At IRAK3 [2], the maximal degradation (Dmax) was 27% and the DC50 was > 10 µM.
Molecule `Cc1cccc(-c2cnc(Nc3ccc(C4CCN(CCNC(=O)COc5ccc6c(c5)C(=O)N(C5CCC(=O)NC5=O)C6=O)CC4)cc3)c3nccn23)c1` (stereo not drawn) [Compound 10, 2-((2-(2,6-Dioxopiperidin-3-yl)-1,3-dioxoisoindolin-5-yl)oxy)-N-(2-(4-(4-((5-(m-tolyl)imidazo[1,2-a]pyrazin-8-yl)amino)phenyl)piperidin-1-yl)ethyl)acetamide] yielded a half-maximal inhibitory concentration (IC50) at IRAK3 [1] of 236 nM. Further, at IRAK3 [2], the Dmax came to 30% and the half-maximal degradation concentration (DC50) was > 10 µM.
For `Cc1cccc(-c2cnc(Nc3ccc(N4CCN(C(=O)CCOCCNC(=O)COc5ccc6c(c5)C(=O)N(C5CCC(=O)NC5=O)C6=O)CC4)cc3)c3nccn23)c1` (stereo not drawn) [Compound 6, 2-((2-(2,6-Dioxopiperidin-3-yl)-1,3-dioxoisoindolin-5-yl)oxy)-N-(2-(3-oxo-3-(4-(4-((5-(m-tolyl)imidazo[1,2-a]pyrazin-8-yl)amino)phenyl)piperazin-1-yl)propoxy)ethyl)acetamide] the same measures were 83 nM, 13% and > 10 µM.
Consider `Cc1cccc(-c2cnc(Nc3cnn(C4CCN(CCNC(=O)COc5ccc6c(c5)C(=O)N(C5CCC(=O)NC5=O)C6=O)CC4)c3)c3nccn23)c1` (stereo not drawn) [Compound 8, 2-((2-(2,6-Dioxopiperidin-3-yl)-1,3-dioxoisoindolin-5-yl)oxy)-N-(2-(4-(4-((5-(m-tolyl)imidazo[1,2-a]pyrazin-8-yl)amino)-1H-pyrazol-1-yl)piperidin-1-yl)ethyl)acetamide], for which the half-inhibitory concentration (IC50) at IRAK3 [1] is < 0.5 nM. At IRAK3 [2], this molecule returned a Dmax of 73% and a DC50 of 0.02 µM.
In turn, `Cc1cccc(-c2cnc(Nc3cccc(C4CCN(CCNC(=O)COc5ccc6c(c5)C(=O)N(C5CCC(=O)NC5=O)C6=O)CC4)c3)c3nccn23)c1` (stereo not drawn) [Compound 9, 2-((2-(2,6-Dioxopiperidin-3-yl)-1,3-dioxoisoindolin-5-yl)oxy)-N-(2-(4-(3-((5-(m-tolyl)imidazo[1,2-a]pyrazin-8-yl)amino)phenyl)piperidin-1-yl)ethyl)acetamide] gave an IC50 at IRAK3 [1] of 214 nM. For the same molecule, on IRAK3 [2], the greatest degradation seen (Dmax) came out at 33% and the half-maximal degradation concentration (DC50) was > 10 µM.
At IRAK3 [1], `Cc1cccc(-c2cnc(Nc3ccc(N4CCN(C(=O)CCCNC(=O)COc5cccc6c5C(=O)N(C5CCC(=O)NC5=O)C6=O)CC4)cc3)c3nccn23)c1` (stereo not drawn) [Compound 2, 2-((2-(2,6-Dioxopiperidin-3-yl)-1,3-dioxoisoindolin-4-yl)oxy)-N-(4-oxo-4-(4-(4-((5-(m-tolyl)imidazo[1,2-a]pyrazin-8-yl)amino)phenyl)piperazin-1-yl)butyl)acetamide] yielded a concentration for half-maximal inhibition (IC50) of 30 nM. Moreover, at IRAK3 [2], the Dmax worked out at 13% and the DC50 was > 10 µM.
